From patent publication US20260242416A1, “ANTIMICROBIAL PEPTIDES” (priority 2023, published 2026)
Converted amounts (≈) assume the structure as drawn. Like-named read-outs stand apart in the source and are kept apart here. Where a SMILES comes first, the peptide text is derived from it.

Columns and labels:
[1] = system: Salmonella enterica serovar Enteritidis (human clinical isolate); assay type: cell-based
Procedure, shortened: (§1)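 MIC taken as lowest peptide level showing no visible growth after 20-24 h at 37° C. Twofold series 128-0.5 μg/mL in Mueller-Hinton broth, polypropylene plates, final inoculum 2-8×10^5 cfu/mL, per CLSI with cationic-peptide adaptations.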

S. aureus ATCC 29213 = assay type: cell-based, Staphylococcus aureus
Procedure, shortened: as §1

E. coli ATCC 25922 = assay type: cell-based, Escherichia coli
Procedure, shortened: as §1

[2] = system: E. coli ATCC 25922, Salmonella Enteritidis, S. aureus ATCC 29213; test: Broth microdilution, panel result (at least one / all strains), Example 2; assay type: cell-based; parameters: key to inhibitory activity (asterisk): *Indicates inhibitory activity; conditions: for inhibitory activity (asterisk): Table 14, against at least one of E. coli ATCC 25922, Salmonella Enteritidis, S. aureus ATCC 29213
Procedure, shortened: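 CLSI broth microdilution adapted for cationic peptides, in MHB with a final inoculum of 2-8×10^5 cfu/mL in polypropylene plates. Peptides were serially diluted from 128 down to 0.5 μg/mL and incubated 20-24 h at 37° C. MIC is the lowest concentration with no visible growth.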

[3] = serovar Enteritidis (human clinical isolate)

Row | Compound | MIC (ug/mL) S. Enteritidis [1, 3] | MIC (ug/mL) S. aureus (S. aureus ATCC 29213; ATCC 29213) | MIC (ug/mL) E. coli (E. coli ATCC 25922; ATCC 25922) | inhibitory activity (asterisk) [2] | spectrum of antimicrobial activity ([2]; panel of E. coli, Salmonella Enteritidis, S. aureus, up to 128 μg/mL) | MIC (ug/mL) S. Enteritidis ([1]; Table 14, second value of the cell, three independent experiments, highest concentration tested 128) [µg/mL] | MIC (ug/mL) S. aureus (S. aureus ATCC 29213; Table 14, third value of the cell, three independent experiments, highest concentration tested 128) [µg/mL] | MIC (ug/mL) E. coli (E. coli ATCC 25922; Table 14, first value of the cell, three independent experiments, highest concentration tested 128) [µg/mL]
1 | CC[C@H](C)[C@H](NC(=O)CN)C(=O)N[C@@H](Cc1ccccc1)C(=O)N[C@@H](CO)C(=O)N[C@@H](CC(C)C)C(=O)N[C@H](C(=O)N[C@@H](CCCCN)C(=O)NCC(=O)N[C@@H](C)C(=O)N[C@@H](C)C(=O)N[C@@H](CCCCN)C(=O)N[C@H](C(=O)N[C@H](C(=O)N[C@@H](C)C(=O)N[C@@H](CCCCN)C(=O)NCC(=O)N[C@@H](CC(C)C)C(=O)NCC(=O)O)C(C)C)C(C)C)[C@@H](C)CC [PeNi3, GIFSLIKGAAKVVAKGLG] (H-GIFSLIKGAAKVVAKGLG-OH; N-terminus and C-terminus assumed) | 64 to 128 µg/mL | 64 to 128 µg/mL | 16 to 32 µg/mL | 1096.* GIFSLIKGAAKVVAKGLG |  |  |  | 
2 | CC(C)C[C@H](NC(=O)CN)C(=O)N[C@@H](CC(C)C)C(=O)NCC(=O)N[C@@H](CCCCN)C(=O)N[C@H](C(=O)N[C@@H](CC(C)C)C(=O)NCC(=O)N[C@H](C(=O)NCC(=O)N[C@@H](CCCCN)C(=O)N[C@@H](CCCCN)C(=O)N[C@H](C(=O)N[C@@H](CC(C)C)C(=O)N[C@@H](CS)C(=O)O)C(C)C)C(C)C)C(C)C [PeNi4, GLLGKVLGVGKKVLC] (H-GLLGKVLGVGKKVLC-OH; N-terminus and C-terminus assumed) | 4 to 8 µg/mL | 4 to 8 µg/mL | 8 to 16 µg/mL | 424.* GLLGKVLGVGKKVLC |  |  |  | 
3 | C[C@H](NC(=O)CN)C(=O)N1CCC[C@H]1C(=O)N[C@@H](CCCCN)C(=O)NCC(=O)N[C@@H](CS)C(=O)N[C@@H](Cc1c[nH]c2ccccc12)C(=O)N[C@H](C(=O)N[C@@H](CCCCN)C(=O)N[C@@H](CO)C(=O)N[C@@H](Cc1ccc(O)cc1)C(=O)N1CCC[C@H]1C(=O)N1CCC[C@H]1C(=O)N[C@@H](CCCCN)C(=O)N1CCC[C@H]1C(=O)N[C@@H](CS)C(=O)N[C@@H](CO)C(=O)NCC(=O)N[C@@H](CCCCN)C(=O)N[C@@H](CCCNC(=N)N)C(N)=O)[C@@H](C)O [PeNi12] (H-GAPKGCWTKSYPPKPCSGKR-NH2; N-terminus and C-terminus assumed) | >128/>128/>128 ug/mL | >128/>128/>128 ug/mL | >128/>128/>128 ug/mL |  | non-inhibitory against the panel of bacteria at the concentrations tested |  |  | 
4 | CC[C@H](C)[C@H](N)C(=O)N[C@@H](CO)C(=O)N[C@H](C(=O)N[C@@H](CCCCN)C(=O)N[C@@H](CCC(=O)O)C(=O)N[C@@H](C)C(=O)N[C@@H](CC(C)C)C(=O)N[C@@H](CCC(=O)O)C(=O)N[C@@H](Cc1c[nH]cn1)C(=O)N[C@@H](CO)C(=O)N[C@@H](Cc1ccccc1)C(=O)N[C@@H](Cc1ccccc1)C(=O)N[C@@H](Cc1c[nH]cn1)C(=O)N[C@H](C(=O)N[C@H](C(=O)N1CCC[C@H]1C(=O)N[C@@H](CCCNC(=N)N)C(=O)N[C@@H](CCCCN)C(=O)N[C@@H](Cc1c[nH]c2ccccc12)C(=O)N[C@@H](CS)C(=O)N[C@@H](CCCCN)C(=O)N[C@@H](CCCCN)C(=O)N[C@@H](Cc1c[nH]cn1)C(=O)O)C(C)C)[C@@H](C)O)[C@@H](C)CC [PoSn1] (H-ISIKEALEHSFFHTVPRKWCKKH-OH) | 64/>128/>128 ug/mL | 64/>128/>128 ug/mL | 64/>128/>128 ug/mL | 936.* ISIKEALEHSFFHTVPRKWCKKH |  |  |  | 
5 | CC[C@H](C)[C@H](NC(=O)[C@H](CO)NC(=O)[C@H](CC(C)C)NC(=O)[C@H](CO)NC(=O)[C@H](CCCCN)NC(=O)[C@H](CC(C)C)NC(=O)[C@H](C)NC(=O)[C@@H](N)[C@@H](C)O)C(=O)N[C@@H](CC(C)C)C(=O)N[C@@H](CCCCN)C(=O)N[C@@H](CCCCN)C(=O)N[C@@H](CC(C)C)C(=O)N[C@@H](C)C(=O)N[C@@H](CCCCN)C(=O)N[C@@H](CC(C)C)C(=O)N[C@@H](CC(N)=O)C(=O)N[C@@H](CCSC)C(=O)O [PoSn2, TALKSLSILKKLAKLNM] (H-TALKSLSILKKLAKLNM-OH; N-terminus and C-terminus assumed) |  |  |  | 942.* TALKSLSILKKLAKLNM |  | > 128 | > 128 | 64 to 128
6 | CC[C@H](C)[C@H](NC(=O)CN)C(=O)N[C@@H](CC(C)C)C(=O)N[C@@H](CO)C(=O)NCC(=O)N[C@@H](CC(C)C)C(=O)N[C@@H](CC(C)C)C(=O)NCC(=O)N[C@@H](C)C(=O)NCC(=O)N[C@@H](CCCCN)C(=O)N[C@@H](CCCCN)C(=O)N[C@H](C(=O)N[C@H](C(=O)N[C@@H](CS)C(=O)NCC(=O)N[C@@H](CC(C)C)C(=O)N[C@@H](CO)C(=O)NCC(=O)N[C@@H](CCSC)C(=O)N[C@@H](CS)C(=O)O)C(C)C)[C@@H](C)CC [RaOm2] (H-GILSGLLGAGKKIVCGLSGMC-OH; N-terminus and C-terminus assumed) | > 128 µg/mL | > 128 µg/mL | 64 to 128 µg/mL | 629.* GILSGLLGAGKKIVCGLSGMC |  |  |  | 
7 | CC[C@H](C)[C@H](NC(=O)[C@H](CCCNC(=N)N)NC(=O)[C@H](CCCNC(=N)N)NC(=O)[C@@H]1CCCN1C(=O)[C@H](CS)NC(=O)[C@H](CS)NC(=O)[C@H](Cc1ccc(O)cc1)NC(=O)[C@H](CS)NC(=O)[C@H](CC(C)C)NC(=O)[C@@H](NC(=O)[C@H](CCCNC(=N)N)NC(=O)[C@@H](NC(=O)[C@H](Cc1ccccc1)NC(=O)[C@H](C)N)C(C)C)[C@@H](C)CC)C(=O)N[C@@H](CCCCN)C(=O)N[C@@H](CCCNC(=N)N)C(=O)N[C@@H](CCCNC(=N)N)C(=O)O [TeRu2, AFVRILCYCCPRRIKRR] (H-AFVRILCYCCPRRIKRR-OH; N-terminus and C-terminus assumed) | > 128 µg/mL | 128 µg/mL (≈ 59.4 µM) | 64 to 128 µg/mL | 994.* AFVRILCYCCPRRIKRR |  |  |  | 

Now from value to compound, other results behind:

Row | MIC (ug/mL) S. Enteritidis [1, 3] | MIC (ug/mL) S. aureus (S. aureus ATCC 29213; ATCC 29213) | MIC (ug/mL) E. coli (E. coli ATCC 25922; ATCC 25922) | Compound | inhibitory activity (asterisk) [2] | spectrum of antimicrobial activity ([2]; panel of E. coli, Salmonella Enteritidis, S. aureus, up to 128 μg/mL) | MIC (ug/mL) S. Enteritidis ([1]; Table 14, second value of the cell, three independent experiments, highest concentration tested 128) [µg/mL] | MIC (ug/mL) S. aureus (S. aureus ATCC 29213; Table 14, third value of the cell, three independent experiments, highest concentration tested 128) [µg/mL] | MIC (ug/mL) E. coli (E. coli ATCC 25922; Table 14, first value of the cell, three independent experiments, highest concentration tested 128) [µg/mL]
8 | 16 to 32 µg/mL | 4 µg/mL (≈ 1.96 µM) | 4 µg/mL (≈ 1.96 µM) | CC(C)C[C@H](NC(=O)CNC(=O)[C@H](CO)NC(=O)[C@@H](NC(=O)[C@@H](NC(=O)[C@H](CS)NC(=O)[C@H](CC(C)C)NC(=O)[C@@H](NC(=O)[C@H](CCCCN)NC(=O)[C@H](CCCCN)NC(=O)CNC(=O)[C@@H](NC(=O)CNC(=O)[C@H](CC(C)C)NC(=O)[C@@H](NC(=O)[C@H](CCCCN)NC(=O)CNC(=O)[C@H](CC(C)C)NC(=O)[C@H](CC(C)C)NC(=O)CN)C(C)C)C(C)C)C(C)C)C(C)C)C(C)C)C(=O)N[C@@H](CS)C(=O)O [PeNi2] (H-GLLGKVLGVGKKVLCVVSGLC-OH; N-terminus and C-terminus assumed) | 395.* GLLGKVLGVGKKVLCVVSGLC |  |  |  | 
9 | 32 to 64 µg/mL | 64 µg/mL (≈ 34.5 µM) | 8 to 16 µg/mL | CC[C@H](C)[C@H](NC(=O)CN)C(=O)N[C@@H](Cc1ccccc1)C(=O)N[C@@H](CO)C(=O)N[C@@H](CC(C)C)C(=O)N[C@H](C(=O)N[C@@H](CCCCN)C(=O)NCC(=O)N[C@@H](C)C(=O)N[C@@H](C)C(=O)N[C@@H](CCCCN)C(=O)N[C@H](C(=O)N[C@H](C(=O)N[C@@H](C)C(=O)N[C@@H](CCCCN)C(=O)NCC(=O)N[C@@H](CC(C)C)C(=O)NCC(=O)N[C@@H](CCCCN)C(=O)O)C(C)C)C(C)C)[C@@H](C)CC [RaOm3, GIFSLIKGAAKVVAKGLGK] (H-GIFSLIKGAAKVVAKGLGK-OH; N-terminus and C-terminus assumed) | 1099.* GIFSLIKGAAKVVAKGLGK |  |  |  | 
10 | 32 µg/mL (≈ 15.7 µM) | 64 to 128 µg/mL | 4 to 8 µg/mL | CC(C)C[C@H](NC(=O)CN)C(=O)N[C@@H](CC(C)C)C(=O)NCC(=O)N[C@@H](CCCCN)C(=O)N[C@H](C(=O)N[C@@H](CC(C)C)C(=O)NCC(=O)N[C@H](C(=O)NCC(=O)N[C@@H](CCCCN)C(=O)N[C@@H](CCCCN)C(=O)N[C@H](C(=O)N[C@@H](CC(C)C)C(=O)N[C@@H](CS)C(=O)NCC(=O)N[C@H](C(=O)N[C@@H](CO)C(=O)NCC(=O)N[C@@H](CCCNC(=N)N)C(=O)N[C@@H](CS)C(=O)O)C(C)C)C(C)C)C(C)C)C(C)C [RaOm4] (H-GLLGKVLGVGKKVLCGVSGRC-OH; N-terminus and C-terminus assumed) | 628.* GLLGKVLGVGKKVLCGVSGRC |  |  |  | 
11 | > 128 µg/mL | 64 to 128 µg/mL | 8 to 16 µg/mL | CC[C@H](C)[C@H](NC(=O)[C@H](CC(C)C)NC(=O)[C@H](CCCCN)NC(=O)[C@H](CC(C)C)NC(=O)CNC(=O)CNC(=O)[C@H](CCCCN)NC(=O)[C@@H](NC(=O)[C@H](CC(C)C)NC(=O)[C@H](CCCCN)NC(=O)CNC(=O)[C@@H](NC(=O)[C@H](CC(C)C)NC(=O)CN)C(C)C)C(C)C)C(=O)NCC(=O)N[C@@H](Cc1c[nH]cn1)C(=O)N[C@H](C(=O)N[C@@H](C)C(=O)N[C@@H](CC(N)=O)C(=O)NCC(=O)O)C(C)C [RaSi1] (H-GLVGKLVKGGLKLIGHVANG-OH; N-terminus and C-terminus assumed) | 2.* GLVGKLVKGGLKLIGHVANG |  |  |  | 
